Results published in patent US12247320B2, “Multivalent glycopeptides that tightly bind to carbohydrate-binding monoclonal antibody family PGT128” (BRANDEIS UNIVERSITY, priority 2018, dated 2025).

Key:
[1] = target: PGT128; assay: Binding of radiolabeled, cyclized, glycosylated peptides to PGT128 (Protein G bead capture, scintillation counting); details: for Kd: after affinity purification with 100 nM PGT128
Experimental: Radioactive Peptides. For binding analysis, translation (50 μL) was carried out in the presence of PDF/MAP and ^3H-histidine for radiolabeling. The crude peptides were purified by Ni-NTA agarose or, if the sequence contained two cysteine residues, was cyclized while captured on the Ni-NTA resin. The peptide eluents were combined and dialyzed as follows. To the combined eluents was added a solution of Triton X-100 in water for a final concentration of 0.1%. Then, the peptides were dialyzed against 0.1% (v/v) Triton X-100 using a Slide-A-Lyzer™ MINI device (0.1 mL capacity, 3.5 kDa MWCO) (ThermoScientific) at room temperature overnight. The dialyzed peptides were retrieved from the devices, transferring to 0.5 mL centrifuge tubes. The peptide solutions were concentrated to dryness by speedvac for the click reaction.
Sequences were screened for their binding to PGT128 as follows. Each glycosylated peptide (20 fmol) was incubated with either 0 nM or 100 nM PGT128, diluted to 20 μL with 1× selection buffer, tumbling for 1 hour at room temperature. While tumbling, Dynabeads™ Protein G (Invitrogen) were equilibrated with 1× selection buffer as follows. Steps were carried out using a multi-channel pipettor where possible. For each sequence, 5 μL of Protein G bead suspension was transferred to a 0.2 mL PCR tube in a strip. Then, 40 μL of 1× selection buffer was added to the beads. The mixture was resuspended by gently vortexing, spun down briefly, and placed on a magnet for 1 minute. The supernatant was removed, and this wash was repeated two more times. The final supernatant was removed just prior to addition of the incubated peptide/antibody mixture. The mixture was allowed to tumble at room temperature for 30 minutes to capture antibodies and bound peptides. Then, the suspension was briefly spun down, placed on a magnet, and the supernatant was transferred to an individual 0.2 mL PCR tube. To wash the beads, 20 μL of 1× selection buffer was added, gently vortexed, spun down briefly, placed on a magnet for 1 minute, and the wash was transferred to the same PCR tube as the supernatant. This wash step was repeated twice more for a total of three washes, saved altogether with the supernatant as the “unbound” fraction. The beads were then resuspended in 40 μL of denaturing elute buffer. The suspension was heated at 95° C. for 5 minutes to denature antibodies, spun down briefly, placed on a magnet for 1 minute, and the eluent was transferred to an individual 0.2 mL PCR tube. The beads were washed with 40 μL of denaturing elute buffer, and the wash was placed into the same tube as the eluent. The combined eluent and wash represented the “bound” fraction. The beads were resuspended in 40 μL of denaturing elute buffer, vortexed, and directly placed into a vial with liquid scintillation cocktail for radioactivity measurements, though it was not included in calculations of fraction bound. Each of the tubes with the “unbound” and “bound” fractions were placed into vials for LSC. The tube in which the antibody and peptides were incubated were also measured by LSC, but not included in calculations of fraction bound.
Cyclized and glycosylated peptides 91-8 (SEQ ID NO:74) and 91-12 (SEQ ID NO:76) (Heavily Biased library) were subject to PGT128 affinity purification. The sequences (0.3 μmol) were each incubated with 100 nM PGT128, diluted to 40 μL with 1× selection buffer, tumbling for 1 hour at room temperature. The antibody/peptide complexes were captured on equilibrated Protein G (10 μL) and washed as described previously. The bound fraction was then eluted as follows. The beads were resuspended in 10 μL of 1× selection buffer and heated at 70° C. for 30 minutes. Then, the suspension was chilled on ice for 5 minutes, and tumbled at room temperature for 10 minutes. The eluent was separated, and the beads were washed with 10 μL of 1× selection buffer. The wash was combined with the eluent as the “bound” fraction. […]

[2] = Solubility seen during reduction and cyclization of the synthetic peptide; format: physicochemical; details: reduced peptide in 200 mM NH4HCO3 with 10 mM TCEP, not glycosylated
Experimental: Then, 9 mg of crude peptide was reduced and cyclized as follows. Each peptide (1 mM final concentration) was dissolved in 200 mM NH4HCO3 with 10 mM TCEP for a reaction volume of 1332 μL. The reactions were tumbled at room temperature for 50 minutes. At that time, the reactions were buffer-exchanged to remove excess TCEP. […] The pellet was washed six times with 1 mL portions of 200 mM NH4HCO3. Portions of the H-22 reaction were transferred to Centricon-500 spin columns (MWCO 2 kDa) with 300 μL of 200 mM NH4HCO3. The filters were spun down and washed six times with 300 μL of 200 mM NH4HCO3. The solutions were then diluted to 1322 μL with 200 mM NH4HCO3, 5.95 mL of water, and 5.68 mL of MeCN in a 15 mL conical tube. Then, 529 μL of a solution of 5 mM m-dibromoxylene in MeCN was added, for a final concentration of 0.2 mM of m-dibromoxylene and 0.1 mM peptide. The cyclization reactions were tumbled at room temperature and monitored by LC-MS. After 40 minutes, H22 was complete. At that time, 132 μL of 5 mM m-dibromoxylene in MeCN was added to the H-1 reaction to push it to completion (total reaction time: 140 minutes). The reactions were quenched by lowering the pH with formic acid. The solutions were concentrated under reduced pressure and lyophilized overnight.

[3] = before PGT128 affinity purification
[4] = following PGT128 affinity purification

Sequence | Kd [1] [nM] | maximum fraction bound [1, 3] [%] | maximum fraction bound [1, 4] [%] | solubility [2]
MAHYSXNHXRHPLYPSVNHRXSYPRIGLLSRIGDIRSASCXLRCFRXRST [91-8cy] | 2.73 ± 0.36 | 69 | 85 | –
XYPNTLNNVYQKCNKYNVIGDIRXARCXHXEHFSSQDQPKSKHKRRYKGF [91-12cy] | 7.41 ± 1.29 | 54 | 74 | –
YTEKHNGIGDIRPAICXNSKNQNHRCNHYQIKLYIHXLXRLPHNYRNS [H-1, Top round 12 PGT128 cluster, Heavily Biased library; made by SPPS with C-terminal biotinyl-lysine] | – | – | – | poor solubility
